The source of these data is US20250296938A1, “Compounds that Interact with the Ras Superfamily for the Treatment of Cancers, Inflammatory Diseases, Rasopathies, and Fibrotic Disease” (SHY Therapeutics, LLC, priority 2018, published 2025).

One assay has as its system IL-6. In words: Mouse IL6 quantification assay, LPS-stimulated RAW 264.7 macrophages. It is filed as cell-based. As to conditions: for inhibition at 30 µM: RAW264.7, 30 μM, LPS-stimulated RAW 264.7 macrophages. As to the method:
(§1) Cell lines: Abelson murine leukemia virus transformed macrophage cell line RAW 264.7 was purchased from ATCC and grown in complete DMEM-High Glucose medium supplemented with penicillin (100 U/mL), streptomycin (100 μg/mL), and 10% heat-inactivated FBS at 37° C. in a humidified incubator with 5% CO2.
(§2) Method: Cells were plated at 25000-40000 cells/well density in a 96-well plate. After a 3-hour incubation, macrophages were starved with DMEM plus 0.5% FBS overnight. The next day the small molecules to be tested were added to the cells in the final concentration of 30 μM (with 0.3% DMSO) 3 hours prior to LPS stimulation (100 ng/ml). After LPS stimulation cells were incubated at 37° C. for 16 h. Alternatively, compounds were also tested at 10 μM and LPS (100 ng/ml) was added concurrently and incubated 5 hours at 37° C. At the end of the incubation periods, culture medium was collected and production of LPS-induced TNF-α and IL-6 cytokine was measured using ELISA detection kits.
(§3) Sandwich ELISA: The ELISA Immunoassays Quantikine Mouse TNF-alpha (catalog number MTA00B) and IL6 (catalog number M6000B) were purchased from R&D Systems Inc., Minneapolis, MN. These 4.5 hours solid phase ELISAs were used to measure mouse TNF-α or IL-6 levels in macrophages culture supernatants. Assays were executed according to the manufacturer specifications.

The test system of a further assay is TNF-α. In words: Mouse TNF alpha quantification assay, LPS-stimulated RAW 264.7 macrophages. The conditions noted are these: for inhibition at 30 µM: RAW264.7, 30 μM, LPS-stimulated RAW 264.7 macrophages. It is filed as cell-based. As to the method:
as §1, §2, §3

A further assay deals with AKT phosphorylation. Put plainly: Western AKT cell-based phosphorylation assay, PANC-1. The conditions noted are these: Homo sapiens, PANC-1 (Table 4C). The method in brief:
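PANC-1 cells, serum-starved overnight in 0.5% FBS, were treated with compound at 10 μM (0.3% DMSO) for 6 h at 37 °C and then stimulated with 1.5 ng/ml EGF for 15 min. Lysates (15–50 μg) were immunoblotted for phospho-Akt Ser473, with ECL detection.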

A further assay has as its system MAPK phosphorylation. In words: MAPK cell-based phosphorylation assay (ELISA or Western), PANC-1. As to conditions: Homo sapiens; 10 μM, PANC-1 (Table 4C). The method in brief:
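Serum-starved (0.5% FBS overnight) cells given compound at 10 μM or serial dilutions (0.3% DMSO) for 6 h at 37 °C, then 1.5 ng/mL EGF for 15 min. Phospho-MAPK read by fixed-cell ELISA (fluorescence, 595 nm) or by Western blot of lysates with anti-phospho-p44/42 (Thr202/Tyr204).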
For orientation: ELISA stands for enzyme-linked immunosorbent assay.

One may read the inhibition as the drop in the measured response relative to a control, in per cent.

On to `Oc1nc(-c2ccccn2)nc(CN2CCc3ccccc3C2)c1O`, for which the inhibition at 30 µM in the assay with IL-6 and with TNF-α was 0% throughout.

`Cn1ccc(-c2sc3nc(-c4nccn4C)nc(N[C@@H]4CC[C@H](O)C4)c3c2-c2ccccc2)n1` (racemic) [drawing 774]: the inhibition at 10 µM was in the range of 26 to 50% in the assay with IL-6 (RAW264.7, 10 μM, LPS (100 ng/ml) added concurrently, 5 hours, RAW 264.7) and 1 to 25% with TNF-α (RAW264.7, 10 μM, LPS (100 ng/ml) added concurrently, 5 hours, RAW 264.7, read-out: TNFα % Inhibition).

For `COc1cccc(-c2sc3nc(-c4nccn4C)nc(N[C@@H]4CC[C@H](OC)C4)c3c2C)c1F` [drawing 494], the inhibition at 10 µM in the assay with AKT phosphorylation is 0%; in the assay on MAPK phosphorylation, 76 to 100%.

Turning to `COC1CCC(Nc2nc(-c3nccn3C)nc3sc(-c4cccc5[nH]ncc45)c(C)c23)C1` (centres unmarked) [drawing 495], the inhibition at 10 µM with AKT phosphorylation and in the assay on MAPK phosphorylation was 76 to 100% throughout.

As for `COCCn1ccnc1-c1nc(O)c2scc(-c3ccc(OCC(C)C)nc3)c2n1` [drawing 498], the figures for the inhibition at 10 µM with AKT phosphorylation and in the assay on MAPK phosphorylation were 0% and 76 to 100%, respectively.

With `CC(C)COc1ccc(-c2csc3c(O)nc(-c4nccn4Cc4ccccn4)nc23)cn1` [drawing 499], the inhibition at 10 µM was 0% in the assay on AKT phosphorylation and 76 to 100% with MAPK phosphorylation.

Regarding `COc1cccc(Cn2ccnc2-c2nc(O)c3scc(-c4ccc(OCC(C)C)nc4)c3n2)c1` [drawing 500], the values for the inhibition at 10 µM in the assay with AKT phosphorylation and in the assay on MAPK phosphorylation were 0% and 76 to 100%, respectively.

Take `CO[C@H]1CC[C@@H](Nc2nc(-c3nccn3C)nc(C(=O)N3CCc4c(O)cccc4C3)c2C)C1` [drawing 501]: the values for the inhibition at 10 µM in the assay with AKT phosphorylation and in the assay on MAPK phosphorylation were 1 to 25% and 26 to 50%, respectively.

As for `CO[C@H]1C[C@@H](Nc2nc(-c3ccccn3)nc3sccc23)C1` [drawing 502], the figures for the inhibition at 10 µM in the assay on AKT phosphorylation and in the assay on MAPK phosphorylation were 0% and 1 to 25%, respectively.

Take `CO[C@H]1C[C@@H](Nc2nc(-c3nccn3C)nc3sccc23)C1` [drawing 503]: the inhibition at 10 µM in the assay with AKT phosphorylation was 0%; with MAPK phosphorylation, 1 to 25%.

In the case of `Cn1ccc(-c2sc3nc(-c4nccn4C)nc(O)c3c2-c2ccccc2)n1` [drawing 504], the inhibition at 10 µM in the assay with AKT phosphorylation and with MAPK phosphorylation was 0% throughout.

`CO[C@H]1C[C@@H](Nc2nc(-c3nccn3C)nc3sc(-c4ccn(C)n4)c(-c4ccccc4)c23)C1` [drawing 505]: the inhibition at 10 µM in the assay on AKT phosphorylation and in the assay on MAPK phosphorylation was 76 to 100% throughout.

For `CO[C@H]1C[C@H](Nc2nc(-c3nccn3C)nc3sc(-c4ccn(C)n4)c(-c4ccccc4)c23)C1` [drawing 506], the inhibition at 10 µM in the assay on AKT phosphorylation and in the assay on MAPK phosphorylation was 76 to 100% throughout.

Turning to `CN(C)CCOCCNc1nc(-c2nccn2C)nc2sc(-c3ccn(C)n3)c(-c3ccccc3)c12` [drawing 507], the inhibition at 10 µM with AKT phosphorylation and in the assay on MAPK phosphorylation was 0% throughout.

On to `Cn1ccc(-c2sc3nc(-c4nccn4C)nc(N[C@H]4C[C@@H](O)C4)c3c2-c2ccccc2)n1` [drawing 508], for which the values for the inhibition at 10 µM with AKT phosphorylation and in the assay with MAPK phosphorylation were 0% and 1 to 25%, respectively.

As to `CO[C@H]1C[C@@H](Nc2nc(-c3ncc[nH]3)nc3sc(-c4ccn(C)n4)c(-c4ccccc4)c23)C1` [drawing 510], the inhibition at 10 µM in the assay with AKT phosphorylation and in the assay with MAPK phosphorylation was 0% each time.

For `CO[C@H]1CC[C@@H](Nc2nc(-c3ncc[nH]3)nc3sc(-c4ccn(C)n4)c(-c4ccccc4)c23)C1` [drawing 511], the inhibition at 10 µM with AKT phosphorylation and in the assay on MAPK phosphorylation was 76 to 100% each time.

In the case of `CO[C@H]1CC[C@@H](Nc2nc(-c3nccn3C)nc3sc(-c4ccn(C(C)C)n4)c(-c4ccccc4)c23)C1` [drawing 512], the inhibition at 10 µM in the assay on AKT phosphorylation and with MAPK phosphorylation was 76 to 100% each time.

In the case of `COc1nc(-c2ccccn2)nc2c(-c3ccccn3)csc12` [drawing 513], the inhibition at 10 µM in the assay on AKT phosphorylation and with MAPK phosphorylation was 0% in each case.

Consider `CO[C@H]1C[C@@H](Nc2nc(-c3nccn3C)nc3sc(-c4ccn(C)n4)c(C)c23)C1` [drawing 514], for which the figures for the inhibition at 10 µM with AKT phosphorylation and in the assay on MAPK phosphorylation were 0% and 76 to 100%, respectively.

Take `CO[C@H]1CC[C@@H](Nc2nc(-c3nccn3C)nc3sc(-c4ccn(C)n4)c(C)c23)C1` [drawing 515]: the inhibition at 10 µM with AKT phosphorylation and with MAPK phosphorylation was 0% each time.

For `Cc1c(-c2ccn(C)n2)sc2nc(-c3nccn3C)nc(NCCCS(C)(=O)=O)c12` [drawing 516], the inhibition at 10 µM in the assay on AKT phosphorylation and in the assay with MAPK phosphorylation was 0% each time.

In the case of `Cc1c(-c2ccn(C)n2)sc2nc(-c3nccn3C)nc(NCCCC(=O)N(C)C)c12` [drawing 517], the inhibition at 10 µM in the assay on AKT phosphorylation and with MAPK phosphorylation was 0% throughout.

`Cc1c(-c2ccn(C)n2)sc2nc(-c3nccn3C)nc(NCCOC(=O)N(C)C)c12` [drawing 518]: the inhibition at 10 µM in the assay on AKT phosphorylation and with MAPK phosphorylation was 0% in each case.

`CO[C@H]1CC[C@@H](Nc2nc(-c3nccn3C)nc3sc(-c4ccn(C(C)C)n4)c(C)c23)C1` [drawing 519]: the results for the inhibition at 10 µM in the assay on AKT phosphorylation and in the assay on MAPK phosphorylation were 0% and 76 to 100%, respectively.

For `CO[C@H]1C[C@@H](Nc2nc(-c3nccn3C)nc3sc(C(=O)NC(C)C)c(-c4ccccc4)c23)C1` [drawing 520], the inhibition at 10 µM in the assay with AKT phosphorylation and in the assay with MAPK phosphorylation was 0% each time.

In the case of `COCCNC(=O)c1sc2nc(-c3nccn3C)nc(N[C@H]3C[C@@H](OC)C3)c2c1-c1ccccc1` [drawing 521], the inhibition at 10 µM in the assay on AKT phosphorylation and in the assay with MAPK phosphorylation was 0% throughout.

Regarding `CO[C@H]1C[C@@H](Nc2nc(-c3nccn3C)nc3sc(C(=O)N4CCOCC4)c(-c4ccccc4)c23)C1` [drawing 522], the inhibition at 10 µM in the assay with AKT phosphorylation and in the assay on MAPK phosphorylation was 0% each time.

As for `COC1CCN(C(=O)c2sc3nc(-c4nccn4C)nc(N[C@H]4C[C@@H](OC)C4)c3c2-c2ccccc2)C1` (some centres unmarked) [drawing 523], the inhibition at 10 µM in the assay with AKT phosphorylation and in the assay with MAPK phosphorylation was 0% throughout.

On to `CO[C@H]1CC[C@@H](Nc2nc(-c3nccn3C)nc3sc(C(=O)NC(C)C)c(-c4ccccc4)c23)C1` [drawing 524], for which the inhibition at 10 µM with AKT phosphorylation and with MAPK phosphorylation was 0% in each case.

As for `COCCNC(=O)c1sc2nc(-c3nccn3C)nc(N[C@@H]3CC[C@H](OC)C3)c2c1-c1ccccc1` [drawing 525], the inhibition at 10 µM in the assay on AKT phosphorylation and in the assay on MAPK phosphorylation was 0% throughout.

Regarding `CO[C@H]1CC[C@@H](Nc2nc(-c3nccn3C)nc3sc(C(=O)N4CCCC4)c(-c4ccccc4)c23)C1` [drawing 526], the inhibition at 10 µM in the assay with AKT phosphorylation and with MAPK phosphorylation was 0% throughout.

For the molecule `CO[C@H]1CC[C@@H](Nc2nc(-c3nccn3C)nc3sc(C(=O)N4CCOCC4)c(-c4ccccc4)c23)C1` [drawing 527], the inhibition at 10 µM with AKT phosphorylation and in the assay with MAPK phosphorylation was 0% in each case.

Regarding `COc1cccc(-c2csc3c(O)nc(-c4nccn4C)nc23)c1Cl` [drawing 663], the figures for the inhibition at 30 µM with IL-6 and in the assay with TNF-α were 76 to 100% and 26 to 50%, respectively.

On to `Cn1ccnc1-c1nc(O)c2scc(-c3ccccn3)c2n1` [drawing 664], for which the inhibition at 30 µM in the assay on IL-6 and in the assay with TNF-α was 76 to 100% each time.

Take `Oc1nc(-c2ncc3n2CCCC3)nc2c(-c3ccccn3)csc12` [drawing 665]: the inhibition at 30 µM with IL-6 lay within 76 to 100%; in the assay on TNF-α, 51 to 75%.

Take `Oc1nc(-c2cn3ccccc3n2)nc2c(-c3ccccn3)csc12` [drawing 666]: the inhibition at 30 µM in the assay with IL-6 and with TNF-α was 76 to 100% in each case.

With `COCCn1ccnc1-c1nc(O)c2scc(-c3ccccn3)c2n1` [drawing 667], the inhibition at 30 µM in the assay with IL-6 and in the assay with TNF-α was 76 to 100% throughout.

As to `Cc1cc(Cn2ccnc2-c2nc(O)c3scc(-c4ccccn4)c3n2)on1` [drawing 668], the inhibition at 30 µM in the assay with IL-6 lay within 76 to 100%; in the assay with TNF-α, 51 to 75%.

Take `Oc1nc(-c2nccn2Cc2ccccn2)nc2c(-c3ccccn3)csc12` [drawing 669]: the inhibition at 30 µM in the assay with IL-6 fell in the range of 76 to 100%; with TNF-α, 51 to 75%.

Take `COc1cccc(Cn2ccnc2-c2nc(O)c3scc(-c4ccccn4)c3n2)c1` [drawing 670]: the inhibition at 30 µM in the assay on IL-6 and with TNF-α was 76 to 100% throughout.

Take `Cc1cnc(-c2nc(O)c3scc(-c4ccccn4)c3n2)n1C` [drawing 671]: the inhibition at 30 µM with IL-6 and in the assay on TNF-α was 76 to 100% throughout.

With `Cc1cn(C)c(-c2nc(O)c3scc(-c4ccccn4)c3n2)n1` [drawing 672], the inhibition at 30 µM in the assay with IL-6 and in the assay with TNF-α was 76 to 100% in each case.
